In series [1] the test system is gut contractions (stomach, duodenum, jejunum). The following applies: dog, in vivo, iv, 4 mg/kg. The protocol:
Compounds of this invention have been tested for gastrointestinal stimulating activity in a dog model at 4 mg/kg intravenously. Contractions in the gut were recorded with surgically implanted strain gauges. […] Ratios were calculated for the stomach, duodenum and jejunum, and a final arithmetic mean index was calculated and reported in Table 1.

In a further series the test system is Haemophilus influenzae. Kind of series: MIC against strains of Haemophilus influenzae. In kind it is cell-based. The protocol:
Erythromycin A was used for this purpose.
After incubation, each disk is read.
In the manner of Example 23, the efficacy of compounds of this invention were tested against numerous strains of Haemophilus influenzae.

Another series deals with Staph. epidermidis. Nature of the series: antimicrobial spectrum, agar dilution MIC. In kind it is cell-based. The following applies: Staphylococcus epidermidis, strain 3519; BHI agar, 20-24 hours; read-out: MIC. The procedure: (§1) Twelve petri dishes containing successive aqueous dilutions of the test compound mixed with 10 ml of sterilized Brain Heart Infusion agar (Difco 0418-01-5) are prepared. Each plate is inoculated with 1:100 (or 1:10 for slow-growing strains, primarily Micrococcus and Streptococcus) dilutions of up to 32 different microorganisms, using a Steers replicator block. The inoculated plates are incubated at 35°-37° C. for 20-24 hours. In addition, a control plate, using BHI agar containing no test compound, is prepared and incubated at the beginning and end of each test.
(§2) An additional plate containing a compound having known susceptibility patterns for the organisms being tested and belonging to the same antibiotic class as the test compound is also prepared and incubated as a further control, as well as to provide test-to-test comparability.
(§3) After incubation, each disk is read. The MIC is defined as the lowest concentration of drug yielding no growth, a slight haze, or sparsely isolated colonies on the inoculum spot as compared to the growth control.
Background: Agar dilution tests growth on a series of plates holding different concentrations.

A further series relates to Staph. aureus. Nature of the series: antimicrobial spectrum, agar dilution MIC. In kind it is cell-based. The following applies: Staphylococcus aureus, BHI agar, 20-24 hours, read-out: MIC. The procedure:
as §1, §2, §3

The test system of another series is Strep. pyogenes. Kind of series: antimicrobial spectrum, agar dilution MIC. Format: cell-based. The following applies: Streptococcus pyogenes, BHI agar, 20-24 hours, read-out: MIC. The procedure: as §1, §2, §3
The next series concerns Strep. faecium. Kind of series: antimicrobial spectrum, agar dilution MIC. In kind it is cell-based. The following applies: Enterococcus faecium, ATCC8043; strain ATCC 8043; BHI agar, 20-24 hours; read-out: MIC. The procedure:
as §1, §2, §3

The next series concerns E. coli. Nature of the series: antimicrobial spectrum, agar dilution MIC. Format: cell-based. The following applies: Escherichia coli, strain JUHL; BHI agar, 20-24 hours.
[2] abbreviates: Haemophilus influenzae, ATCC9006, strain ATCC 9006, read-out: MIC.
[3] abbreviates: Haemophilus influenzae, ATCC9795, strain ATCC 9795, read-out: MIC.
The mark [4] stands for this setting: Haemophilus influenzae, ATCC10211, strain ATCC 10211, read-out: MIC.
Setting [5] is: Haemophilus influenzae, ATCC19418, strain ATCC 19418, read-out: MIC.
[6] abbreviates: Haemophilus influenzae, strain 504, read-out: MIC.
Where [7] appears, read: Haemophilus influenzae, strain 519A, read-out: MIC.
[8] abbreviates: Haemophilus influenzae, strain 566A, read-out: MIC.
Where [9] appears, read: Haemophilus influenzae, strain 588A, read-out: MIC.
[10] abbreviates: Haemophilus influenzae, strain 632A, read-out: MIC.
The mark [11] stands for this setting: Haemophilus influenzae, strain 667A, read-out: MIC.
Where [12] appears, read: Haemophilus influenzae, strain 747C, read-out: MIC.
[13] abbreviates: Haemophilus influenzae, strain 751, read-out: MIC.
The mark [14] stands for this setting: Haemophilus influenzae, strain 1177, read-out: MIC.
[15] abbreviates: Haemophilus influenzae, strain 1435, read-out: MIC.
Where [16] appears, read: Haemophilus influenzae, strain 5036B, read-out: MIC.
Where [17] appears, read: Haemophilus influenzae, strain DILL AMP R, read-out: MIC.
Where [18] appears, read: Haemophilus influenzae, strain SOL AMP R, read-out: MIC.
Where [19] appears, read: Haemophilus influenzae, strain SPK AMP R, read-out: MIC.

The source of these data is patent US4742049A, “Semisynthetic erythromycin antibiotics” (Abbott Laboratories, priority 1986, dated 1988).

Values after ≈ are worked out from the molar mass of the structure shown. Where two headings read alike, the source gives them in different places.

Regarding `CC[C@H]1OC(=O)[C@H](C)[C@@H](O[C@H]2C[C@@](C)(OC)[C@@H](O)[C@H](C)O2)[C@H](C)[C@@H](O[C@@H]2O[C@H](C)C[C@H](N(C)C)[C@H]2O)[C@](C)(O)C[C@@H](C)C(=O)[C@H](C)[C@H]2NC(=O)O[C@@]21C` [Example 18, 11-deoxyerythromycin A 11,12-cyclic carbamate], in series [1], the “Gastrointestinal Motility Index” value is reported as 3.60.
Consider `CC[C@H]1OC(=O)[C@H](C)[C@@H](O[C@H]2C[C@@](C)(OC)[C@@H](O)[C@H](C)O2)[C@H](C)[C@@H](O[C@@H]2O[C@H](C)C[C@H](N(C)C)[C@H]2O)[C@](C)(OC)C[C@@H](C)C(=O)[C@H](C)[C@H]2N(CCCO)C(=O)O[C@]12C` [Example 15, 11-deoxy-6-O-methyl erythromycin A 11,12-(N-3-hydroxypropyl)cyclic carbamate], for which the MIC amounted to 0.5 µg/mL (≈ 0.602 µM) with Haemophilus influenzae (setting [2]); 0.5 µg/mL (≈ 0.602 µM) in the series with Haemophilus influenzae (setting [3]); 1 µg/mL (≈ 1.2 µM) in the series on Haemophilus influenzae (setting [4]); 1 µg/mL (≈ 1.2 µM) in the series on Haemophilus influenzae (setting [5]); 1 µg/mL (≈ 1.2 µM) in the series on Haemophilus influenzae (setting [6]); 0.5 µg/mL (≈ 0.602 µM) in the series on Haemophilus influenzae (setting [7]). Moreover, the MIC is 1 µg/mL (≈ 1.2 µM) in the series with Haemophilus influenzae (setting [8]); 1 µg/mL (≈ 1.2 µM) in the series on Haemophilus influenzae (setting [9]); 1 µg/mL (≈ 1.2 µM) in the series with Haemophilus influenzae (setting [10]); 1 µg/mL (≈ 1.2 µM) in the series with Haemophilus influenzae (setting [11]); 0.5 µg/mL (≈ 0.602 µM) in the series with Haemophilus influenzae (setting [12]); 1 µg/mL (≈ 1.2 µM) with Haemophilus influenzae (setting [13]). Moreover, the MIC in the series with Haemophilus influenzae (setting [14]) worked out at 1 µg/mL (≈ 1.2 µM); with Haemophilus influenzae (setting [15]), 0.5 µg/mL (≈ 0.602 µM); with Haemophilus influenzae (setting [16]), 1 µg/mL (≈ 1.2 µM); in the series on Haemophilus influenzae (setting [17]), 0.5 µg/mL (≈ 0.602 µM); in the series with Haemophilus influenzae (setting [18]), 0.5 µg/mL (≈ 0.602 µM); in the series with Haemophilus influenzae (setting [19]), 1 µg/mL (≈ 1.2 µM).
With `CC[C@H]1OC(=O)[C@H](C)[C@@H](O[C@H]2C[C@@](C)(OC)[C@@H](O)[C@H](C)O2)[C@H](C)[C@@H](O[C@@H]2O[C@H](C)C[C@H](N(C)C)[C@H]2O)[C@](C)(O)C[C@@H](C)C(=O)[C@H](C)[C@H]2N(C)C(=O)O[C@]12C` [Example 19, 11-deoxyerythromycin A 11,12-(N-methyl)cyclic carbamate], in series [1], the “Gastrointestinal Motility Index” value worked out at 5.83.
On to “11-deoxy-6-O-methyl erythromycin A 11,12-(N-3-hydroxyethyl)cyclic carbamate [Example 16]”, for which the MIC was 1 µg/mL in the series with Haemophilus influenzae (strain 504); “.5 µg/mL” in the series with Haemophilus influenzae (strain 519A); 1 µg/mL in the series on Haemophilus influenzae (strain 566A); “.5 µg/mL” against Haemophilus influenzae (strain 588A); 1 µg/mL with Haemophilus influenzae (strain 632A); 1 µg/mL against Haemophilus influenzae (strain 667A). Besides, the MIC result was “.5 µg/mL” in the series with Haemophilus influenzae (strain 747C); 1 µg/mL against Haemophilus influenzae (strain 751); 1 µg/mL in the series on Haemophilus influenzae (strain 1177); “.25 µg/mL” with Haemophilus influenzae (strain 1435); 1 µg/mL in the series on Haemophilus influenzae (strain 5036B); “.5 µg/mL” in the series with Haemophilus influenzae (strain ATCC 9006). For the same compound, the MIC result in the series on Haemophilus influenzae (strain ATCC 9795) was “.5 µg/mL”; in the series with Haemophilus influenzae (strain ATCC 10211), 1 µg/mL; in the series on Haemophilus influenzae (strain ATCC 19418), “.5 µg/mL”; against Haemophilus influenzae (strain DILL AMP R) it was “.5 µg/mL”; against Haemophilus influenzae (strain SOL AMP R), “.5 µg/mL”; in the series on Haemophilus influenzae (strain SPK AMP R), 1 µg/mL.
On to `CC[C@H]1OC(=O)[C@H](C)[C@@H](O[C@H]2C[C@@](C)(OC)[C@@H](O)[C@H](C)O2)[C@H](C)[C@@H](O[C@@H]2O[C@H](C)C[C@H](N(C)C)[C@H]2O)[C@](C)(OC)C[C@@H](C)C(=O)[C@H](C)[C@H]2N(CCCOCCOC)C(=O)O[C@]12C` [Example 1, 11-deoxy-6-O-methylerythromycin A-11,12-(N-methoxyethoxypropyl)cyclic carbamate], for which the MIC worked out at 0.06 µg/mL (≈ 0.0675 µM) in the series with Staph. epidermidis; 0.06 µg/mL (≈ 0.0675 µM) with Staph. aureus (ATCC6538P, strain ATCC 6538P); 0.12 µg/mL (≈ 0.135 µM) with Staph. aureus (strain CMX 686B); 64 µg/mL (≈ 72 µM) in the series on Strep. pyogenes (strain 930); 0.06 µg/mL (≈ 0.0675 µM) in the series on Strep. pyogenes (strain EES61); 0.06 µg/mL (≈ 0.0675 µM) in the series on Strep. faecium. Besides, in the series with E. coli, the MIC worked out at 16 µg/mL (≈ 18 µM).
`CC[C@H]1OC(=O)[C@H](C)[C@@H](O[C@H]2C[C@@](C)(OC)[C@@H](O)[C@H](C)O2)[C@H](C)[C@@H](O[C@@H]2O[C@H](C)C[C@H](N(C)C)[C@H]2O)[C@](C)(OC)C[C@@H](C)C(=O)[C@H](C)[C@H]2N(CCCN(C)C)C(=O)O[C@]12C` [Example 12, 11-deoxy-6-O-methyl erythromycin A 11,12-[N-(3-dimethylamino)propyl]cyclic carbamate]: the MIC came out at 0.5 µg/mL (≈ 0.583 µM) with Haemophilus influenzae (setting [2]); 0.5 µg/mL (≈ 0.583 µM) in the series on Haemophilus influenzae (setting [3]); 1 µg/mL (≈ 1.17 µM) in the series with Haemophilus influenzae (setting [4]); 1 µg/mL (≈ 1.17 µM) in the series with Haemophilus influenzae (setting [5]); 1 µg/mL (≈ 1.17 µM) in the series with Haemophilus influenzae (setting [6]); 0.5 µg/mL (≈ 0.583 µM) with Haemophilus influenzae (setting [7]). For the same compound, the MIC in the series with Haemophilus influenzae (setting [8]) turned out to be 1 µg/mL (≈ 1.17 µM); with Haemophilus influenzae (setting [9]) it was 0.5 µg/mL (≈ 0.583 µM); in the series on Haemophilus influenzae (setting [10]), 0.5 µg/mL (≈ 0.583 µM); in the series on Haemophilus influenzae (setting [11]) it was 0.5 µg/mL (≈ 0.583 µM); with Haemophilus influenzae (setting [12]), 0.5 µg/mL (≈ 0.583 µM); in the series with Haemophilus influenzae (setting [13]), 0.5 µg/mL (≈ 0.583 µM). For the same compound, the MIC was 0.5 µg/mL (≈ 0.583 µM) with Haemophilus influenzae (setting [14]); 0.25 µg/mL (≈ 0.291 µM) in the series on Haemophilus influenzae (setting [15]); 1 µg/mL (≈ 1.17 µM) in the series with Haemophilus influenzae (setting [16]); 0.5 µg/mL (≈ 0.583 µM) in the series on Haemophilus influenzae (setting [17]); 0.5 µg/mL (≈ 0.583 µM) in the series on Haemophilus influenzae (setting [18]); 0.5 µg/mL (≈ 0.583 µM) in the series on Haemophilus influenzae (setting [19]).
